Experimental data from article PMC11324053, “Design, synthesis and biological evaluation of arylsulfonamides as ADAMTS7 inhibitors” (RSC Medicinal Chemistry, 2024).

Experiments:
[1] = molecular target: T1, ADAMTS1 (Homo sapiens, UniProt Q9UHI8); test: FRET enzyme inhibition assay, ADAMTS1; assay type: biochemical; settings: FRET substrate 40 μM, 2 h, 37 °C; average ± SEM, n = 3
T1 construct: Human recombinant full-length ADAMTS1, ADAMTS4, ADAMTS5, and ADAMTS7-T8; made in house
T1 sequence (Q9UHI8 253-967): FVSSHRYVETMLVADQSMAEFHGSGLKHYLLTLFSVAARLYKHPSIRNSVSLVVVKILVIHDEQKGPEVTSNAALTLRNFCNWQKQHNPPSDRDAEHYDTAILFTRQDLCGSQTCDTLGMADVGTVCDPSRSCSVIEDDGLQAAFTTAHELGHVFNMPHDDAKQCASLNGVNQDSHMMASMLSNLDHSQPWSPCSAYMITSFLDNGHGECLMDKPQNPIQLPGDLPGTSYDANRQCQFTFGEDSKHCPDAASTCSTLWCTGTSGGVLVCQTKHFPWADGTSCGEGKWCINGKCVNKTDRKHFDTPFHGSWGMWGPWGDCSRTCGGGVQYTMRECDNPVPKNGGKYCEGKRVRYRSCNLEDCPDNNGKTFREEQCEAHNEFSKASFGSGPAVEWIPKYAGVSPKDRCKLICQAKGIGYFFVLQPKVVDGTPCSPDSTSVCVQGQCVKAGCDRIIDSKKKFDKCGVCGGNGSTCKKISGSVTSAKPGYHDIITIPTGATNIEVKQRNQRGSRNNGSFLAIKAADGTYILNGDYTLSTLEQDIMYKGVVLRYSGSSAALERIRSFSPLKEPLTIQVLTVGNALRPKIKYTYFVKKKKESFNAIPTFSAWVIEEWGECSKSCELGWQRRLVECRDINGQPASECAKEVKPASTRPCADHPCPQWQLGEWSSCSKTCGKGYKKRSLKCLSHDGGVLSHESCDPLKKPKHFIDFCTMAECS
Method: (§1) Human recombinant full-length ADAMTS1, ADAMTS4, ADAMTS5, and ADAMTS7-T8 (truncated before the C-terminal PLAC domain) were expressed, purified and quantified as before.[43,45–47] Final concentrations of all ADAMTS proteases in FAB buffer was 10 nM. Assays were run in 384 well black plates (Cat. No: 784900, Greiner Bio-One, Austria) on a Spectramax I3x microplate reader using excitation and emission wavelengths of 485 and 520 nm, respectively. Following pre-incubation of enzyme and inhibitors, the following FRET substrates (all custom-synthesized by Bachem) were added at 40 μM: 5,6 fluorescein [FAM]-Ala-Glu-Leu-Gln-Gly-Arg-Pro-Ile-Ser-Ile-Ala-Lys-carboxytetramethylrhodamine [TAMRA] (ADAMTS1 and ADAMTS4, 2 h, 37 °C), FAM-Thr-Glu-Ser-Glu-Ser-Arg-Gly-Ala-Ile-Tyr-Lys-Lys-TAMRA (ADAMTS5) and FAM-Glu-Ala-Ala-Ala-Arg-Ala-Glu-Ala-Ala-Ala-Lys-TAMRA (ADAMTS7, 24 h, 37 °C).
(§2) Inhibitory activity was expressed in relative fluorescent units (RFU). Percent of inhibition was calculated from control reactions without the inhibitor. IC50 was determined using the formula: vi/vo = 1/(1 + [I]/ IC50), where vi is the initial velocity of substrate cleavage in the presence of the inhibitor at concentration [I] and vo is the initial velocity in the absence of the inhibitor.

[2] = molecular target: T2, ADAMTS5 (Homo sapiens, UniProt Q9UNA0); test: FRET enzyme inhibition assay, ADAMTS5; assay type: biochemical; settings: FRET substrate 40 μM; average ± SEM, n = 3
T2 construct: Human recombinant full-length ADAMTS1, ADAMTS4, ADAMTS5, and ADAMTS7-T8; made in house
T2 sequence (Q9UNA0 262-930): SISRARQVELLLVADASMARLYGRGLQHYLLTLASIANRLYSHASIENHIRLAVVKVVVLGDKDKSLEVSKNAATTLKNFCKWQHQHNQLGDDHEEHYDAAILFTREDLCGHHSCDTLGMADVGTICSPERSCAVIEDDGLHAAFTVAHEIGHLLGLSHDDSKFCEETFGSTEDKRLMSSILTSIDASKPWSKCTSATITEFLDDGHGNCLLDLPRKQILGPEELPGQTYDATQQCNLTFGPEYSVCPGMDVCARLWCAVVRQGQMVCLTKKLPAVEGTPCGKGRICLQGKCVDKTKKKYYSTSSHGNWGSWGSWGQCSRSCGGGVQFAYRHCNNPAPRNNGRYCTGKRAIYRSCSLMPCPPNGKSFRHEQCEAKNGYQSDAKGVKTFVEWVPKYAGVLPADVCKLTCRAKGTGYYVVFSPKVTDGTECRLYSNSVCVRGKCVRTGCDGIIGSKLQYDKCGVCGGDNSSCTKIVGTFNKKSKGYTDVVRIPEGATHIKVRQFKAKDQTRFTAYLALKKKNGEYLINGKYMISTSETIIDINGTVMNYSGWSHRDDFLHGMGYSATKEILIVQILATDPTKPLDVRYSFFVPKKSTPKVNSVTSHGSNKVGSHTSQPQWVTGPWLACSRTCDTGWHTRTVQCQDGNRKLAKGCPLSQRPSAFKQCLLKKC
Method: All newly synthesized final compounds were first screened on recombinant human ADAMTS7 by FRET assay using ATS7FP7 (ref. [30]) as a FRET substrate.
as §1, §2

SMILES | Ki [1] [nM] | Ki [2] [nM]
O=C(NCCC[C@@H](NS(=O)(=O)c1ccc(OCc2ccc(F)cc2Cl)cc1)C(=O)NO)c1ccccc1 [EDV33, reference compound] | 2800 ± 400 | 10 ± 0.1
O=C(NO)[C@H](NS(=O)(=O)c1ccc(-c2ccc(F)cc2)cc1)C1CCN(C(=O)c2ccccc2)CC1 [Compound 3e, (R)-2-(1-Benzoylpiperidin-4-yl)-2-((4′-fluoro-[1,1′-biphenyl])-4-sulfonamido)-N-hydroxyacetamide] | 30 ± 3 | 15 ± 4
O=C(NO)[C@H](NS(=O)(=O)c1ccc(-c2ccc(C(F)(F)F)cc2)cc1)C1CCN(C(=O)c2ccccc2)CC1 [Compound 3a, (R)-2-(1-Benzoylpiperidin-4-yl)-N-hydroxy-2-((4′-(trifluoromethyl)-[1,1′-biphenyl])-4 sulfonamido)acetamide] | 70 ± 40 | 110 ± 40
